Non-standard residues stand in square brackets, D forms with d. Residues, ends and D or L forms follow the SMILES beside them. No end group written: not given here. pGlu = O=C1CC[C@@H](C(=O)O)N1
Columns and labels:
NMB receptor = NMB receptor (Rattus norvegicus, UniProt P24053); experiment: biochemical
Procedure: Membranes of the NMB receptor used in the binding assay were obtained by homogenizing rat olfactory bulb tissue (Polytron, setting 6, 15 sec) in ice-cold 50 mM Tris-HC1 (Buffer A) and centrifuging twice as 39,000 x g (10 min), with an intermediate resuspension in fresh buffer. The final pellets were resuspended in the 50 mM Tris-HCl, containing 0.1 mg/ml bacitracin, and 0.1% BSA (Buffer B), and held on ice for the receptor binding assay. For the assay, aliquots (0.4 ml) were incubated with 0.05 ml [^125 I] NMB (-2200 Ci/mmol, New England Nuclear) and Buffer B, with and without 0.05 ml of unlabeled competing peptides. The experiment was performed with BIM-26336, […], GRP, and NMB as competing peptides.
After a 30 min incubation (4° C.), the bound [^125 I]NMB was separated from the free by rapid filtration through GF/B filters which had been previously soaked in 0.3% polyethyleneimine. The filters were then washed three times with 5 ml aliquots of ice-cold Buffer A. Specific binding was defined as the total [125I] NMB bound minus that bound in the presence of 1 μM unlabeled NMB.

human NMB receptor = target: T1, human NMB receptor (Homo sapiens, UniProt P28336); experiment: Calcium uptake functional assay in xenopus oocytes expressing the human NMB receptor (aequorin luminometry); assay type: cell-based; conditions: xenopus oocytes coinjected with NMB receptor RNA and aequorin
T1 construct: expressed in transfected cells; host or cells: Xenopus oocytes injected with NMB receptor RNA and aequorin
Procedure: (§1) The ability of BIM-26336 and BIM-26337 to activate both the GRP and NMB receptors were analyzed using a calcium uptake functional assay.
Xenopus oocytes, a frog egg naturally deprived of any receptors, were coinjected with both NMB receptor RNA and calcium photoprotein aequorin. The ability of SAP bombesins to induce change in intracellular calcium levels within the cells were measured luminometrically. See Spindel, et al., Recent Progress in Hormone Research 48:365 (1993); Corjay, et al., J. Biol. Chem. 266:18771 (1991); and Giladi et al., BioTechniques 10:744 (1991), all of which are hereby incorporated by reference.
(§2) The ability of bombesin, NMB, SAP bombesin-14, and SAP bombesin-10 to agonize the receptor was tested.

[1] = tested on: Swiss 3T3/1R mouse embryo fibroblast cells; experiment: Thymidine uptake assay in Swiss 3T3 cells; assay type: cell-based; conditions: 24 h
Procedure: Swiss 3T3/1R mouse embryo fibroblast cells were plated in 24 well tissue culture plates at a density of 2×10^4 cells in 1 ml of Dublbecco's modified eagles medium (DMEM) supplemented with 40 mM glutamine (Gln) in 10% fetal bovine serum. Cells were incubated 3 or 4 days at […] in a humidified atmosphere at 95% air/5% CO2 before replacing the growth medium with DMEM/Gln and 250 μg/ml gentamicin. On the following day, 1 μCi thymidine was added to all wells, and activity was addressed by addition of test peptides alone or in the presence on 3 nM bombesin, respectively. After 24 h, the cells were rinsed with icecold isotonic saline and treated with ice-cold 5% trichloroacetic acid for 30 min. Cells were then rinsed with 95% ethanol and incubated with 0.1 N NaOH overnight at room temperature. One ml aliquots of neutralized samples were counted in a Packard Tri-Carb liquid scintillation analyzer. Test sample activity was measured in 2 independent experiments performed in quadruplicate.
This experiment was performed using 5 test samples: (1) bombesin (3 nM); (2) BIM-26336; (3) BIM-26337; (4) bombesin (3 nM) and BIM-26336; and (5) bombesin (3 nM)+BIM-26337. The results of these experiments are depicted on FIG. 6, wherein the x-axis depicts concentration of the respective SAP bombesin and the y-axis depicts disintegration per minute.

human GRP receptor = target: T2, human GRP receptor (Homo sapiens, UniProt P30550); experiment: Calcium uptake functional assay in xenopus oocytes expressing the human GRP receptor (aequorin luminometry); assay type: cell-based; conditions: xenopus oocytes coinjected with GRP receptor RNA and aequorin
T2 construct: expressed in transfected cells; host or cells: Xenopus oocytes injected with GRP receptor RNA and aequorin
Procedure: as §1
Xenopus oocytes were coinjected with both GRP receptor RNA and calcium photoprotein aequorin. The ability of SAP bombesins to induce change in intracellular calcium levels within the cells can be measured luminometrically.
as §2

GRP receptor = GRP receptor (Rattus norvegicus, UniProt P52500); experiment: biochemical
Procedure: Membranes of the GRP receptor used in the binding assay were obtained by homogenizing cultured AR42J cells (Polytron, setting 6, 15 sec) in ice-cold 50 mM Tris-HC1 (Buffer A) and centrifuging twice as 39,000 x g (10 min), with an intermediate resuspension in fresh buffer. The final pellets were resuspended in the 50 mM Tris-HCl, containing 0.1 mg/ml bacitracin, and 0.1% BSA (Buffer B), and held on ice for the receptor binding assay. […] The experiment was performed with BIM-26336, […], GRP, and NMB as competing peptides.

Sequence of GRP receptor (P52500 whole entry): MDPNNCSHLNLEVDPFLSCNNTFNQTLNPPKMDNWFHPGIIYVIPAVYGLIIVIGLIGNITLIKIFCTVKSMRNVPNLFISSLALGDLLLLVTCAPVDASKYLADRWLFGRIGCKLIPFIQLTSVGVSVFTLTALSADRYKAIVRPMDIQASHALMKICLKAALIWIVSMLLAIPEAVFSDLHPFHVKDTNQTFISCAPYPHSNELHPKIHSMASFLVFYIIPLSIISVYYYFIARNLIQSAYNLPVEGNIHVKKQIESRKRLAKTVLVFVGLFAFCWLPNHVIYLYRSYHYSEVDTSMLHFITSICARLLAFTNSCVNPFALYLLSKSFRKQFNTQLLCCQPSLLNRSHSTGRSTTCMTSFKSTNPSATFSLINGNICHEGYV
Sequence of NMB receptor (P24053 whole entry): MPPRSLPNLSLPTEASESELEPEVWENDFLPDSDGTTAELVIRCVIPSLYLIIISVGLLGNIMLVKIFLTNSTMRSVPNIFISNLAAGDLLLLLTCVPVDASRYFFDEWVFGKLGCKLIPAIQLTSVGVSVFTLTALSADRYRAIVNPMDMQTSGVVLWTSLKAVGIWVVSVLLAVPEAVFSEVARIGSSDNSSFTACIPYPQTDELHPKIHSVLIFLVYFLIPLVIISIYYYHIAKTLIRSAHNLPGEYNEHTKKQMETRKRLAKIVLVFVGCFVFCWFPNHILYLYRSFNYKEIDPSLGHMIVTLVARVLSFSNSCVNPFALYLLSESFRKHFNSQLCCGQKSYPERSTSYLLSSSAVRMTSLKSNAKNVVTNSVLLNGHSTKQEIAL
T2 sequence (P30550 whole entry): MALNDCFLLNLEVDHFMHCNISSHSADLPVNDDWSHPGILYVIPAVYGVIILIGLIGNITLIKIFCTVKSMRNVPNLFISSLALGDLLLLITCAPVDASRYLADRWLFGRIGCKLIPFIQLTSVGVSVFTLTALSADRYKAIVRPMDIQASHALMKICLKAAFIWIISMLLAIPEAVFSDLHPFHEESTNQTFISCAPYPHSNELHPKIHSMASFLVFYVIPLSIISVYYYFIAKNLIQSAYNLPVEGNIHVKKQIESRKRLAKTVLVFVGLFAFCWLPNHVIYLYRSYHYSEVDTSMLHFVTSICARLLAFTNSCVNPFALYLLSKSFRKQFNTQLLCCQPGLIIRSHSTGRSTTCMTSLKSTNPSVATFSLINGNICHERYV
T1 sequence (P28336 whole entry): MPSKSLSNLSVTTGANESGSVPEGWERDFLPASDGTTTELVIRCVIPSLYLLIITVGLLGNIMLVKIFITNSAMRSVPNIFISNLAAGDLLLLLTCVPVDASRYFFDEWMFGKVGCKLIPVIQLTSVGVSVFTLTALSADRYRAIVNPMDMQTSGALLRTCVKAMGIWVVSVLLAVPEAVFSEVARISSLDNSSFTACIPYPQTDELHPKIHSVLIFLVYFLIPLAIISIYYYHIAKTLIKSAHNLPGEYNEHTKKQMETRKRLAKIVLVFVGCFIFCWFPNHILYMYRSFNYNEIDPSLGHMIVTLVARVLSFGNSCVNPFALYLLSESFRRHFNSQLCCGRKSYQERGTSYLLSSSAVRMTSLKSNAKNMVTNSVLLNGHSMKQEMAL

Row | Compound | Ki (NMB receptor) [µM] | potency at the NMB receptor (intracellular calcium, relative to NMB) (human NMB receptor) | thymidine uptake, peptide with bombesin ([1]; in the presence of 3 nM bombesin) | thymidine uptake, peptide alone ([1]; test peptide alone) | potency at the GRP receptor (intracellular calcium) (human GRP receptor) | Ki (GRP receptor) [µM] | binding selectivity between GRP and NMB receptors (GRP receptor; comparison of Ki at NMB and GRP receptors)
1 | CSCC[C@H](NC(=O)[C@H](Cc1ccccc1)NC(=O)[C@H](Cc1c[nH]cn1)NC(=O)CNC(=O)[C@H](CCCNC(=N)N)NC(=O)[C@H](C)NC(=O)[C@H](Cc1c[nH]c2ccccc12)NC(=O)[C@H](CCC(N)=O)NC(=O)[C@H](CC(N)=O)NC(=O)CNC(=O)[C@H](CC(C)C)NC(=O)[C@H](CO)NC(=O)[C@H](CCC(N)=O)NC(=O)[C@@H]1CCC(=O)N1)C(N)=O [BIM-26337, H-pGlu-Gln-Ser-Leu-Gly-Asn-Gln-Trp-Ala-Arg-Gly-His-Phe-Met-NH2] ([pGlu]QSLGNQWARGHFM-NH2) | 0.61 | approximately two log units less than that of NMB | substantially enhanced | induce thymidine uptake | significantly greater potency than SAP bombesin-10 | 0.0064 | more selective binding of GRP than NMB receptors
2 | GNQWARGHFM-NH2 [BIM-26336, Gly-Asn-Gln-Trp-Ala-Arg-Gly-His-Phe-Met-NH2] | 0.0151 |  |  |  |  | 0.0066 | 

Source: patent US5410018A, “Bombesin-related peptides” (Oregon Regional Primate Research Center, priority 1994, dated 1995)
